Tests used:
Test in all cases: Post-emergence herbicidal activity test (stem and leaf spray, pot culture)
Assay type in all cases: in vivo
Details in all cases: 3 weeks after spraying
[1] = test system: Trifoliumre pensL.
Procedure, shortened: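 Rates of 10, 5 and 2.5 g/mu were applied in a single spray-tower treatment to 2–3-leaf plants, thinned to 10 per pot. Formulation: acetone solution, Tween 80, 1.5 L/ha methyl oleate synergist. Weed response assessed after 3 further greenhouse weeks; mean of three experiments.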

[2] = test system: Portulaca oleracea
Procedure, shortened: (§1)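 Foliar spray, 2–3-leaf stage, 10/5/2.5 g/mu; acetone/Tween 80 + methyl oleate 1.5 L/ha. Greenhouse 3 wk, 20–30 °C. Score: fresh-wt control, grade 5 ≥85% … grade 0 <5%.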

[3] = test system: Setaria viridis
Procedure, shortened: as §1

[4] = test system: Abutilon theophrasti
Procedure, shortened: as §1

[5] = test system: Amaranthus retroflexus
Procedure, shortened: as §1

[6] = test system: Echinochloa crusgalli
Procedure, shortened: as §1

For `COc1ccccc1C(=O)COc1cc(N2C(=O)C3=C(CCCC3)C2=O)c(F)cc1Cl` [Compound C6, 2-(4-chloro-2-fluoro-5-(2-oxo-2-(2-methoxyphenyl)ethoxy)phenyl)-4,5,6,7-tetrahydro-1H-isoindole-1,3(2H)-dione], the “Post-emergence herbicidal activity, Trifoliumre pensL. (grade)” value ([1]; dosage 2.5 g/mu) was 5 (Grade 5: the growth control rate is greater than or equal to 85%), the “Post-emergence herbicidal activity, Trifoliumre pensL. (grade)” value ([1]; dosage 5 g/mu) was 5 (Grade 5: the growth control rate is greater than or equal to 85%) and the “Post-emergence herbicidal activity, Trifoliumre pensL. (grade)” value ([1]; dosage 10 g/mu) was 5 (Grade 5: the growth control rate is greater than or equal to 85%). For the same molecule, the “Post-emergence herbicidal activity, P. oleracea (grade)” value ([2]; dosage 2.5 g/mu) was 5 (Grade 5: the growth control rate is greater than or equal to 85%), the “Post-emergence herbicidal activity, P. oleracea (grade)” value ([2]; dosage 5 g/mu) was 5 (Grade 5: the growth control rate is greater than or equal to 85%) and the “Post-emergence herbicidal activity, P. oleracea (grade)” value ([2]; dosage 10 g/mu) was 5 (Grade 5: the growth control rate is greater than or equal to 85%). For the same molecule, the “Post-emergence herbicidal activity, S. viridis (grade)” value ([3]; dosage 2.5 g/mu) was 2 (Grade 2: the growth control rate is greater than or equal to 20% and less than 40%), the “Post-emergence herbicidal activity, S. viridis (grade)” value ([3]; dosage 5 g/mu) was 3 (Grade 3: the growth control rate is greater than or equal to 40% and less than 60%) and the “Post-emergence herbicidal activity, S. viridis (grade)” value ([3]; dosage 10 g/mu) was 4 (Grade 4: the growth control rate is greater than or equal to 60% and less than 85%). For the same molecule, the “Post-emergence herbicidal activity, A. theophrasti (grade)” value ([4]; dosage 2.5 g/mu) was 5 (Grade 5: the growth control rate is greater than or equal to 85%), the “Post-emergence herbicidal activity, A. theophrasti (grade)” value ([4]; dosage 5 g/mu) was 5 (Grade 5: the growth control rate is greater than or equal to 85%) and the “Post-emergence herbicidal activity, A. theophrasti (grade)” value ([4]; dosage 10 g/mu) was 5 (Grade 5: the growth control rate is greater than or equal to 85%). For the same molecule, the “Post-emergence herbicidal activity, A. retroflexus (grade)” value ([5]; dosage 2.5 g/mu) was 5 (Grade 5: the growth control rate is greater than or equal to 85%), the “Post-emergence herbicidal activity, A. retroflexus (grade)” value ([5]; dosage 5 g/mu) was 5 (Grade 5: the growth control rate is greater than or equal to 85%) and the “Post-emergence herbicidal activity, A. retroflexus (grade)” value ([5]; dosage 10 g/mu) was 5 (Grade 5: the growth control rate is greater than or equal to 85%). For the same molecule, the “Post-emergence herbicidal activity, E. crusgalli (grade)” value ([6]; dosage 2.5 g/mu) was 1 (Grade 1: the growth control rate is greater than or equal to 5% and less than 20%), the “Post-emergence herbicidal activity, E. crusgalli (grade)” value ([6]; dosage 5 g/mu) was 2 (Grade 2: the growth control rate is greater than or equal to 20% and less than 40%) and the “Post-emergence herbicidal activity, E. crusgalli (grade)” value ([6]; dosage 10 g/mu) was 3 (Grade 3: the growth control rate is greater than or equal to 40% and less than 60%).

From patent publication US20240300932A1, “N-PHENYLIMINE DERIVATIVE AND PREPARATION METHOD AND USE THEREOF” (Guizhou University, priority 2023, published 2024)
